Laboratory results as given in patent US20250084058A1, “PHENYLPYRAZOLE COMPOUND AND APPLICATION THEREOF” (priority 2022, published 2025).
Where two headings read alike, the source gives them in different places.

Legend:
Type in all cases: in vivo
[1] = tested on: Mythimna separata; test: Activity determination of killing Mythimna separata (Airbrush spray, corn leaf segments); conditions: foliar, dose 1.25 mg/L, 3rd instar larvae, 3rd day after administration, read-out: mortality against Mythimna separata
Experimental: (§1) The compounds to be tested were dissolved in a mixed solvent of acetone/methanol (1:1) and then diluted to desired concentrations with water containing 0.1% (wt) Tween 80.
(§2) With Mythimna separata and Plutella xylostella as targets, the activity was determined by Airbrush spray method.
Determination method: Corn leaves were cut into leaf segments with the length of 2 cm, the pressure of Airbrush spray treatment is 10 psi (about 0.7 kg/cm^2), and the compounds to be tested were sprayed onto the front and back surfaces of each leaf segment at a liquid amount of 0.5 mL. After drying in the shade, 10 3rd instar larvae were inoculated to each treatment, and each treatment was repeated for 3 times. After the treatment, the larvae were placed in an observation room for culture at 25° C. with relative humidity of 60-70%. On the 3rd day after administration, the number of surviving larvae was investigated, and the mortality was calculated.

[2] = tested on: Plutella xylostella; test: Activity determination of killing Plutella xylostella (Airbrush spray, cabbage leaf discs); conditions: foliar, 3rd day after administration; for mortality at 0.3125 µg/mL: 0.3125 mg/L, read-out: Mortality (%, on 3rd day after administration) 0.3125 mg/L; for mortality at 0.625 µg/mL: 0.625 mg/L, read-out: Mortality (%, on 3rd day after administration) 0.625 mg/L
Experimental: as §1, §2
Determination method: Cabbage leaves were punched into leaf discs with the diameter of 2 cm by a puncher, the pressure of Airbrush spray treatment is 10 psi (about 0.7 kg/cm^2), and the compounds to be tested were sprayed onto the front and back surfaces of each leaf disc at a liquid amount of 0.5 mL. After drying in the shade, 10 3rd instar larvae were inoculated to each treatment, and each treatment was repeated for 3 times. After the treatment, the larvae were placed in an observation room for culture at 25° C. with relative humidity of 60-70%. On 3rd day after administration, the number of surviving larvae was investigated, and the mortality was calculated.
Some compounds of the present disclosure and control compounds were selected to carry out parallel comparative experiments of the insecticidal activity against Plutella xylostella (on 3rd day after administration), and the determination method was the same as above.

[3] = tested on: Tetranychus cinnabarinus; test: Greenhouse acaricidal activity on adult acarids of Tetranychus cinnabarinus (spraying of Phaseolus vulgaris seedlings); conditions: dose 1.25 mg/L, after 72 h, read-out: mortality against adult acarids of Tetranychus cinnabarinus
Experimental: According to the solubility of the compounds to be tested, the compounds to be tested were dissolved in acetone or dimethyl sulfoxide and prepared into 50 mL of solutions to be tested at desired concentrations with a 0.1% Tween 80 solution, where the content of the acetone or dimethyl sulfoxide in the solutions was not higher than 10%.
Two true leaves of Phaseolus vulgaris seedlings were taken, and 30-40 adult acarids of Tetranychus cinnabarinus were inoculated. After the cardinal number was investigated, the whole plants were subjected to spraying treatment with a hand-held sprayer, each treatment was repeated for 3 times, and the plants were placed in a standard observation room after the treatment. The number of surviving acarids was investigated after 72 h, and the mortality was calculated.

[4] = tested on: Ctenocephalides felis; test: Insecticidal test on Ctenocephalides felis (compound film in culture dish); conditions: 1 μg/cm^2; adult Ctenocephalides felis; after 72 h; 25° C.; read-out: insect mortality (Ctenocephalides felis)
Experimental: 4 mg of compounds to be tested were dissolved in 40 mL of acetone to obtain acetone solutions with a concentration of 100 mg/L. Bottom surfaces and side surfaces of culture dishes with an inner diameter of 5.3 cm were coated with 400 μL of the drug solutions, and when the acetone was volatilized, films of the compounds of the present disclosure were prepared on inner walls of the culture dishes. The inner walls of the culture dishes used were 40 cm^2, and a dose of the treatment drugs was 1 μg/cm^2. 10 adult Ctenocephalides felis (males and females were mixed) were placed in the culture dishes, and the culture dishes were covered and then stored in a constant-temperature room at 25° C. The number of dead insects was checked after 72 h, and the insect mortality was calculated. The test was repeated for 3 times. Test results: The insect mortality of compounds 1, 2, 3, 4, 5, 11, 12, 18, 32, 33, 34, 46, 60, 74, 88, 99, 101, 102, 104, 105, 108, 109, 110, 111, 113 and 114 is 70% or above.

[5] = tested on: Dermacentor variabilis; test: Insecticidal test on Dermacentor variabilis (compound film in culture dish); conditions: 1 μg/cm^2, 1st nymphs, after 24 h, 25° C., read-out: insect mortality (Dermacentor variabilis)
Experimental: 4 mg of compounds to be tested were dissolved in 40 mL of acetone to obtain acetone solutions with a concentration of 100 mg/L. Bottom surfaces and side surfaces of 2 culture dishes with an inner diameter of 5.3 cm were coated with 400 μL of the drug solutions, and when the acetone was volatilized, films of the compounds of the present disclosure were prepared on inner walls of the culture dishes. The inner walls of the culture dishes used were 40 cm^2, and a dose of the treatment drugs was 1 μg/cm^2. 10 1st nymphs of Dermacentor variabilis (males and females were mixed) were placed in the culture dishes. The 2 culture dishes were combined, sealed with tape at a junction portion to prevent escape of the nymphs, and then stored in a constant-temperature room at 25° C. The number of dead insects was checked after 24 h, and the insect mortality was calculated. The test was repeated for 3 times. Test results: The insect mortality of compounds 1, 2, 3, 4, 5, 11, 12, 18, 32, 33, 34, 46, 60, 74, 88, 99, 101, 102, 104, 105, 108, 109, 110, 111, 113 and 114 is 70% or above.

[6] = dose 1.25 mg/L, 3rd instar larvae, read-out: mortality against Plutella xylostella
[7] = parallel comparative experiment
[8] = 1.25 mg/L, parallel comparative experiment, read-out: Mortality (%, on 3rd day after administration) 1.25 mg/L

Row | Compound | mortality at 1.25 µg/mL [1] | mortality at 1.25 µg/mL [2, 6] | mortality at 1.25 µg/mL [3] | mortality at 1 µg/cm2 [4] | mortality at 1 µg/cm2 [5] | mortality at 0.3125 µg/mL [2, 7] | mortality at 0.625 µg/mL [2, 7] | mortality at 1.25 µg/mL [2, 8]
1 | CCCC(=O)N(C(=O)c1cc(-c2cnn(-c3c(Cl)cc(C(F)(C(F)(F)F)C(F)(F)F)cc3Cl)c2)cnc1Cl)C1(C#N)CC1 [Compound 110] | ≥ 90% | ≥ 90% | ≥ 90% | ≥ 70% | ≥ 70% |  |  | 
2 | N#CCCN(C(=O)c1cc(-c2cnn(-c3c(Cl)cc(C(F)(C(F)(F)F)C(F)(F)F)cc3Cl)c2)cnc1Cl)C1CC1 [Compound 5] | ≥ 90% | ≥ 90% | ≥ 90% | ≥ 70% | ≥ 70% | 100% | 100% | 100%
3 | N#CCN(C(=O)c1cc(-c2cnn(-c3c(Cl)cc(C(F)(C(F)(F)F)C(F)(F)F)cc3Br)c2)cnc1Cl)C1CC1 [Compound 32] | ≥ 90% | ≥ 90% | ≥ 90% | ≥ 70% | ≥ 70% |  |  | 
4 | C#CCN(C(=O)c1cc(-c2cnn(-c3c(Cl)cc(C(F)(C(F)(F)F)C(F)(F)F)cc3Cl)c2)cnc1Cl)C1CC1 [Compound 2] | ≥ 90% | ≥ 90% | ≥ 90% | ≥ 70% | ≥ 70% | 90% | 100% | 100%
5 | C=CCN(C(=O)c1cc(-c2cnn(-c3c(Cl)cc(C(F)(C(F)(F)F)C(F)(F)F)cc3Cl)c2)cnc1Cl)C1CC1 [Compound 1] | ≥ 90% | ≥ 90% | ≥ 90% | ≥ 70% | ≥ 70% | 93.3% | 100% | 100%
6 | COCC(=O)N(C(=O)c1cc(-c2cnn(-c3c(Cl)cc(C(F)(C(F)(F)F)C(F)(F)F)cc3Cl)c2)cnc1Cl)C1CC1 [Compound 105] | ≥ 90% | ≥ 90% | ≥ 90% | ≥ 70% | ≥ 70% | 100% | 100% | 100%
7 | O=C(c1cc(-c2cnn(-c3c(Cl)cc(C(F)(C(F)(F)F)C(F)(F)F)cc3Cl)c2)cnc1Cl)N(C(=O)C1CC1)C1CC1 [Compound 104] | ≥ 90% | ≥ 90% | ≥ 90% | ≥ 70% | ≥ 70% | 100% | 100% | 100%
8 | CCC(=O)N(C(=O)c1cc(-c2cnn(-c3c(Cl)cc(C(F)(C(F)(F)F)C(F)(F)F)cc3Cl)c2)cnc1Cl)C1(C#N)CC1 [Compound 109] | ≥ 90% | ≥ 90% | ≥ 90% | ≥ 70% | ≥ 70% |  |  | 
9 | N#CCCN(C(=O)c1cc(-c2cnn(-c3c(Cl)cc(C(F)(C(F)(F)F)C(F)(F)F)cc3Cl)c2)cnc1Cl)C1(C#N)CC1 [Compound 12] | ≥ 90% | ≥ 90% | ≥ 90% | ≥ 70% | ≥ 70% | 100% | 100% | 100%
10 | COCC(=O)N(C(=O)c1cc(-c2cnn(-c3c(Cl)cc(C(F)(C(F)(F)F)C(F)(F)F)cc3Cl)c2)cnc1Cl)C1(C#N)CC1 [Compound 114] | ≥ 90% | ≥ 90% | ≥ 90% | ≥ 70% | ≥ 70% | 100% | 100% | 100%
11 | N#CCN(C(=O)c1cc(-c2cnn(-c3c(Br)cc(C(F)(C(F)(F)F)C(F)(F)F)cc3Br)c2)cnc1Cl)C1CC1 [Compound 18] | ≥ 90% | ≥ 90% | ≥ 90% | ≥ 70% | ≥ 70% |  |  | 
